Consider four molecules from patent US20210008229A1, “TARGETED PHOTOACOUSTIC AGENTS AND USES THEREOF” (McMaster University, priority 2019, published 2021).

Structures are written as SMILES. ≈ marks a conversion by molar mass, not a printed value.

The nature of data set [1]: stability of 5 in plasma (HPLC). Format: in vitro ADME. As to conditions: murine plasma at 37° C. As to the method: Compound 5 was prepared from the commercially available dye IR-783, which is known to produce a strong photoacoustic signal, in only two steps. The first step involved the preparation of the IR-783-aldehyde 3 which was done successfully using a Suzuki-Miyaura coupling between 1 and 2 in the presence of Pd(PPh3)4 and Cs2CO3. A significant number of different catalysts, bases and reaction conditions were screened to maximize the yield of 3 (96%). The aldehyde was subsequently coupled to tetrazine 4, prepared using a literature procedure,^14 to form the hydrazone 5. Following characterization by nuclear magnetic resonance (NMR) spectroscopy, high resolution mass spectrometry (HRMS) and high performance liquid chromatography (HPLC), the stability of 5 in plasma was evaluated.

A short description of data set [2]: solubility / formulation concentration in 10% ethanol in saline. As to conditions: aqueous with cosolvent or surfactant or cyclodextrin, read-out: concentration formulated (soluble). Format: physicochemical. As to the method: Prior to developing and testing a targeted derivative, in vivo imaging studies were performed with 5 and 143B human osteosarcoma xenografts. Compound 5 was soluble in 10% ethanol in saline and formulated at a concentration of 5 mg mL^−1, which conveniently is higher than what can be achieved for ICG (1 mg mL^−1). Prior to injection, tumors were imaged in order to separate the signals arising from oxygenated and deoxygenated hemoglobin, and 5, which are shown in red, blue and green respectively in color images of FIG. 8. Following administration of 200 μL of 5 (1 mg), signal arising from 5 was clearly visible in the tumor as early as 1 hour post-injection (FIG. 8, upper right image). Mice were sacrificed and the tumors were imaged ex vivo (FIG. 8, lower left image) where uptake of the dye within the tumor was clearly evident.

In data set [3] the test system is 143B human osteosarcoma xenografts. Description: in vivo photoacoustic imaging of tumor xenografts. On the set-up: species or system BALB/c nu/nu mice. Particulars: 1 hour post injection versus background before injection; 200 μL of 5 (1 mg). As to the method: Red in color images=oxyhemoglobin, Blue in color images=deoxyhemoglobin and Green in color images=the dye-tetrazine conjugate according to an embodiment of the present application. The dashed white lines outline the tumor.
Female BALB/c […] mice (Charles River Laboratories, Kingston, N.Y.) at 4-6 weeks of age were sterile housed and maintained at 24° C. with a 12 h light/dark cycle and were provided autoclaved food and water ad libitum. All procedures were conducted according to the guidelines of the Committee for Research and Ethical Issues of the International Association for the Study of Pain, and guidelines established by the Canadian Council on Animal Care and the McMaster University Animal Research Ethics Board. Female 10-11 week old BALB/c nu/nu mice (Charles River Laboratories, Kingston, N.Y.) were injected with 2.0×10^6 143 B cells in Matrigel:Dulbecco's phosphate-buffered saline (DPBS) (1:1) subcutaneously into the right flank. Photoacoustic studies were performed 10 days following tumor inoculation.
Photoacoustic imaging was performed using Vevo LAZR-X (FUJIFILM VisualSonics Inc., Toronto, ON, Canada) Imaging system equipped with a 680-970 nm laser. Mice were anaesthetized with isofluorane and set up on a platform that monitored the respiration rate and the heart rate of the mouse. The hair on the hindlimb was removed while the mouse was anaesthetized. […]

Data set [4] deals with sites of high calcium accretion. Description: in vivo photoacoustic imaging of the knee joint (calcium accretion). On the set-up: species or system Balb/c mice. As to conditions: for photoacoustic signal in the knee (or shoulder) joints: in vivo, 1 hour post-injection. How it is done:
The white arrows indicate the knee joint and light grey arrows indicate blood vessels.
Photoacoustic imaging was performed using Vevo LAZR-X (FUJIFILM VisualSonics Inc., Toronto, ON, Canada) Imaging system equipped with a 680-970 nm laser. Mice were anaesthetized with isofluorane and set up on a platform that monitored the respiration rate and the heart rate of the mouse. The hair on the hindlimb was removed while the mouse was anaesthetized. A 30-MHz, linear array ultrasound transducer with integrated fiber optic light delivery (LZ-400 and MX-400, FUJIFILM VisualSonics, Inc.) was positioned laterally overtop the hindlimb knee joint. The integrated fiber bundle delivered 15 to 20 mJ/cm^2 of light to the hindlimb of the mouse.
There are a number of TCO-derived molecules, including antibodies and small molecules, that are available for use as targeting vectors.^16,17,18,19 For a proof of concept study, compound 5 was combined with a TCO-derived bisphosphonate (TCO-BP (6)). TCO-BP has been used to target radiolabeled tetrazines to sites of high calcium accretion. Conveniently, the compound allows testing to be performed in inexpensive healthy mouse models since tetrazine derivatives coupled to TCO-BP should localize to elbow and knee joints where there is elevated turnover of calcium.^16,20,21 Compound 7 was prepared by mixing compounds 5 and 6 at room temperature for 10 min in quantitative yield; highlighting the ease with which new photoacoustic imaging agents can be prepared using this approach.
For in vivo studies, a group of Balb/c mice were administered the parent tetrazine 5 and a second group received the bisphosphonate derivative 7.

Data set [5] has as its target T1, bovine serum albumin (BSA) (Bos taurus, UniProt P02769).
T1 construct: purchased Sigma-Aldrich
Description: preliminary albumin binding study (absorbance and emission with BSA). As to conditions: absorbance and emission of 5 with varying concentrations of BSA. As to the method:
When experiments were performed at high dye concentrations, aggregation completely quenches the fluorescence signal, which can be restored through the addition of albumin.

For data set [6] the following is noted: comparison value for ICG; cited from earlier work.
The nature of data set [7]: biodistribution study (gamma counting of tissues and fluids). It is filed as in vivo, BALB/c mice. As to the method:
FIG. 11 is a plot showing biodistribution data for selected fluids and tissues for TCO-BP labeled with ^99mTc and coupled to a dye-tetrazine conjugate according to an embodiment of the present application. Experiments were performed using Balb/c mice (n=3 per time point) and tissues and fluids were collected at 1, 3, 6, and 24 h post administration. Data are expressed as the mean percent injected dose per gram (% ID g−1)±SEM.
(upper plot) and fluorescence spectra and intensity data for blood samples (n=3 for each time point) following the administration of TCO-BP labeled with ^99mTc and coupled to a dye-tetrazine conjugate according to an embodiment of the present application taken at 1, 3, 6, and 24 h p.i. (lower plot).
Biodistribution studies were performed using female BALB/c mice (Charles River, Kingston, N.Y.) at the indicated time points. The mice were administered the agents via tail vein injection with the final volume not exceeding 200 μL. A 5 mg/mL solution of compound 9 (see Scheme 2, below) in 10% ethanol in saline was administered at a dose of 20 mg/kg to all mice (approximately 518 kBq of 9). For all studies, at 1, 3, 6, or 24 h post-injection of the labeled compound, the animals were euthanized by cervical dislocation. Fluids, bone (knee and shoulder), and select tissues were collected, weighed, and counted in a PerkinElmer Wizard 1470 automatic gamma counter. Decay correction was used to normalize organ activity measurements to time of dose preparation for data calculations. Data is expressed as percent injected dose per gram tissue or fluid (% ID/g) or percent injected dose per organ (% ID/O).
Mice were administered 9 (518 kBq) and sacrificed at […] post injection where fluids, bone (knee, shoulder), and other key tissues were collected, weighed, and counted in a gamma counter. The resulting data is shown in FIG. 11 and expressed as percent injected dose per gram of tissue or fluid (% ID g^−1).

In data set [8] the test system is plasma proteins. Briefly: plasma binding study. As to conditions: for Pellet: activity in protein pellet; for Supernatant: activity in supernatant. Format: in vitro ADME. The source says: FIG. 13 is a plot showing the results of a plasma binding study of TCO-BP labeled with ^99mTc and coupled to a dye-tetrazine conjugate according to an embodiment of the present application. […]

T1 sequence (P02769 25-607): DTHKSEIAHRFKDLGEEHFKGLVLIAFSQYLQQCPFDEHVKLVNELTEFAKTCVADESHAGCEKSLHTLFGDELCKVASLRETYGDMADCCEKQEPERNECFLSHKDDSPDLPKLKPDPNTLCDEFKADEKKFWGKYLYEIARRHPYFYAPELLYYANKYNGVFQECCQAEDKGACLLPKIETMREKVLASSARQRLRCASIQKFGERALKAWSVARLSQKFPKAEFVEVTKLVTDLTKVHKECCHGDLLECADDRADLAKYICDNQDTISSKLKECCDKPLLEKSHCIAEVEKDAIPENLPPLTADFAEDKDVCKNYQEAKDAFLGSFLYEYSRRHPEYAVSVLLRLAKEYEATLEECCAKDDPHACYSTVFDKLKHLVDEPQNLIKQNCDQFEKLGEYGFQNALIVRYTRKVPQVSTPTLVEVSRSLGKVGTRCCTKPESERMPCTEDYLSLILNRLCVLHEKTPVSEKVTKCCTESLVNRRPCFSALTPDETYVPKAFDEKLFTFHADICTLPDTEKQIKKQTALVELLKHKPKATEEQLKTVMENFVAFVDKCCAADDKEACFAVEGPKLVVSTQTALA

For the molecule `CC1(C)C(/C=C/C2=C(c3ccc(/C=N/Nc4ccc(C(=O)NCc5ccc(-c6nncnn6)cc5)cn4)cc3)C(=C/C=C3\N(CCCCS(=O)(=O)[O-])c4ccccc4C3(C)C)/CCC2)=[N+](CCCCS(=O)(=O)O)c2ccccc21` [Compound 5], the “reactivity of the tetrazine towards TCO-derivatives after plasma incubation” value in data set [1] (24 h) is reported as “remained reactive towards trans-cyclooctene (TCO)-derivatives”. The “stability in plasma (degradation)” value in data set [1] (out to 24 h) is “no signs of degradation”. The solubility in data set [2] came out at 5 mg/mL (≈ 4.54 mM). In addition, the “increase in signal intensity in the tumor” value in data set [3] is 2.3 ×. The “photoacoustic signal in the knee (or shoulder) joints” value in data set [4] was “did not show any significant signal”. For the same molecule, in data set [5], the albumin binding entry is reported as “dye binding to a hydrophobic binding site of albumin”.
For `CC1(C)C(/C=C/C=C/C=C/C=C2\N(CCCCS(=O)(=O)O)c3ccc4ccccc4c3C2(C)C)=[N+](CCCCS(=O)(=O)[O-])c2ccc3ccccc3c21` [ICG, indocyanine green], in data set [6], the “concentration that can be achieved” value was 1000 µg/mL.
Turning to `CC1(C)C(/C=C/C2=C(c3ccc(/C=N/Nc4ccc(C(=O)NCc5ccc(C6=NNC=C7CCC(OC(=O)NCCCC(O)(P(=O)(O)O)P(=O)(O)O)CCCC76)cc5)cn4)cc3)C(=C/C=C3\N(CCCCS(=O)(=O)[O-])c4ccccc4C3(C)C)/CCC2)=[N+](CCCCS(=O)(=O)O)c2ccccc21` (centres unmarked) [Compound 7], the “uptake in the leg, images ex vivo” value in data set [4] (ex vivo leg after 1 hour post-injection imaging) is given as “intense uptake”. For the same molecule, in data set [4], the “photoacoustic signal in the knee (or shoulder) joints” value is “significant signal”.
Consider `CC1(C)C(/C=C/C2=C(c3ccc(/C=N/Nc4ccc(C(=O)NCc5ccc(C6=NNC=C7CCC(OC(=O)NCCCC8(O)P(=O)(O)[O][Tc]9([OH])([OH])([O]P(=O)(O)C(O)(CCCNC(=O)OC%10CC/C=C/CCC%10)P(=O)(O)[O]9)[O]P8(=O)O)CCCC76)cc5)cn4)cc3)C(=C/C=C3\N(CCCCS(=O)(=O)[O-])c4ccccc4C3(C)C)/CCC2)=[N+](CCCCS(=O)(=O)[O][Na])c2ccccc21` (centres unmarked) [Compound 9], for which the “blood level relative to [99mTc]Tc-TCO-BP alone” value is reported as 20 × in data set [7] (1 h) and 187 × in data set [7] (6 h). Moreover, in data set [7] (1 h post injection), the “activity in the blood” value is recorded as “over 15 % ID g^−1”. Further, the blood half-life in data set [7] (determined using radioactive counting) worked out at 3.2 h. Besides, the Pellet is given as 32.79 in data set [8] (0 h); 36.10 in data set [8] (0.5 h); 47.53 in data set [8] (1 h); 45.29 in data set [8] (2 h); 47.72 in data set [8] (3 h); 46.88 in data set [8] (4 h). This molecule also returned a Pellet in data set [8] (6 h) of 47.83. The Supernatant in data set [8] (0 h) came out at 52.00; in data set [8] (0.5 h) it was 53.44; in data set [8] (1 h), 47.27; in data set [8] (2 h) it was 49.35; in data set [8] (3 h) it was 46.82; in data set [8] (4 h), 47.42. The molecule also displayed a Supernatant in data set [8] (6 h) of 47.46. The “activity in the supernatant” value in data set [8] (after 1 hour) is reported as 50%. Moreover, the “activity present in the pellet containing the proteins” value in data set [8] (after 1 hour) is on record as 50%.
